The supplement of paper PMC10307832

How the values were obtained:
Assay in all cases: relative viability (nuclei count vs DMSO), 5 days (fraction); higher = more cells survive
LOU-NH91 = system: LOU-NH91
How it was run: (§1)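 Nuclei were stained with Hoechst during a one-step fixation (final 0.05% Triton X-100, 1% formaldehyde, 1 ug/ml Hoechst) carried out 5 days after dosing, then counted on 4× images. The cells, lung cancer lines in 1536-well plates, had been dosed by pin tool the day after seeding with one drug alone or a fixed anchor-drug dose plus five library-drug doses (not always all listed) in √10 steps. Relative viability is the nuclei count in treated wells divided by that in vehicle wells, and each value is the median of duplicate plates.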

NCI-H2023 = system: NCI-H2023
How it was run: as §1

NCI-H1437 = system: NCI-H1437
How it was run: as §1

EMC-BAC-2 = system: EMC-BAC-2
How it was run: as §1

201T = system: 201T
How it was run: as §1

UMC-11 = system: UMC-11
How it was run: as §1

NCI-H1651 = system: NCI-H1651
How it was run: as §1

NCI-H23 = system: NCI-H23
How it was run: as §1

NCI-H1734 = system: NCI-H1734
How it was run: as §1

HCC-78 = system: HCC-78
How it was run: as §1

NCI-H1975 = system: NCI-H1975
How it was run: as §1

O=C(O)CCCCC(CCSCc1ccccc1)SCc1ccccc1 (stereo not given) [CPI-613] + Cc1cc(Nc2cc(N3CCN(C)CC3)nc(Sc3ccc(NC(=O)C4CC4)cc3)n2)n[nH]1 [Tozasertib] (partner 0.1 µM)
relative viability (LOU-NH91; first compound 5 µM): 0.651
relative viability (LOU-NH91; first compound 15.81 µM): 0.611
relative viability (LOU-NH91; first compound 50 µM): 0.62
relative viability (LOU-NH91; first compound 158.11 µM): 0.684
relative viability (LOU-NH91; first compound 500 µM): 0.643
relative viability (NCI-H2023; first compound 5 µM): 0.359
relative viability (NCI-H2023; first compound 15.81 µM): 0.234
relative viability (NCI-H2023; first compound 50 µM): 0.312
relative viability (NCI-H2023; first compound 158.11 µM): 0.0417
relative viability (NCI-H2023; first compound 500 µM): 0.0077
relative viability (NCI-H1437; first compound 5 µM): 0.374
relative viability (NCI-H1437; first compound 15.81 µM): 0.39
relative viability (NCI-H1437; first compound 50 µM): 0.407
relative viability (NCI-H1437; first compound 158.11 µM): 0.156
relative viability (NCI-H1437; first compound 500 µM): 0.131
relative viability (EMC-BAC-2; first compound 5 µM): 0.333
relative viability (EMC-BAC-2; first compound 15.81 µM): 0.287
relative viability (EMC-BAC-2; first compound 50 µM): 0.284
relative viability (EMC-BAC-2; first compound 158.11 µM): 0.124
relative viability (EMC-BAC-2; first compound 500 µM): 0.0704
relative viability (201T; first compound 5 µM): 0.913
relative viability (201T; first compound 15.81 µM): 0.846
relative viability (201T; first compound 50 µM): 0.8
relative viability (201T; first compound 158.11 µM): 0.443
relative viability (201T; first compound 500 µM): 0.209
relative viability (UMC-11; first compound 5 µM): 0.189
relative viability (UMC-11; first compound 15.81 µM): 0.195
relative viability (UMC-11; first compound 50 µM): 0.183
relative viability (UMC-11; first compound 158.11 µM): 0.127
relative viability (UMC-11; first compound 500 µM): 0.116
relative viability (NCI-H1651; first compound 5 µM): 0.705
relative viability (NCI-H1651; first compound 15.81 µM): 0.588
relative viability (NCI-H1651; first compound 50 µM): 0.77
relative viability (NCI-H1651; first compound 158.11 µM): 0.275
relative viability (NCI-H1651; first compound 500 µM): 0.109
relative viability (NCI-H23; first compound 5 µM): 0.348
relative viability (NCI-H23; first compound 15.81 µM): 0.284
relative viability (NCI-H23; first compound 50 µM): 0.337
relative viability (NCI-H23; first compound 158.11 µM): 0.223
relative viability (NCI-H23; first compound 500 µM): 0.0061
relative viability (NCI-H1734; first compound 5 µM): 0.235
relative viability (NCI-H1734; first compound 15.81 µM): 0.24
relative viability (NCI-H1734; first compound 50 µM): 0.291
relative viability (NCI-H1734; first compound 158.11 µM): 0.152
relative viability (NCI-H1734; first compound 500 µM): 0.118
relative viability (HCC-78; first compound 5 µM): 0.46
relative viability (HCC-78; first compound 15.81 µM): 0.402
relative viability (HCC-78; first compound 50 µM): 0.408
relative viability (HCC-78; first compound 158.11 µM): 0.433
relative viability (HCC-78; first compound 500 µM): 0.405
relative viability (NCI-H1975; first compound 5 µM): 0.7
relative viability (NCI-H1975; first compound 15.81 µM): 0.639
relative viability (NCI-H1975; first compound 50 µM): 0.676
relative viability (NCI-H1975; first compound 158.11 µM): 0.324
relative viability (NCI-H1975; first compound 500 µM): 0.233
